For 17 molecules, melting point results are on record in patent publication US7399775B2, “β-amyloid protein production/secretion inhibitor” (Daiichi Pharmaceutical Co., Ltd., priority 2001, dated 2008).

SMILES strings stand for the structures.

By melting point is commonly meant the temperature, or range, at which the solid turns liquid. On to `O=S(=O)(c1ccc(Cl)cc1)C1(c2cc(F)ccc2F)Cc2ccccc2C1` [Example 278, 2-[(4-Chlorophenyl)sulfonyl]-2-(2,5-difluorophenyl)indane], for which the melting point is 209 to 210 °C (dec.).
As for `Cl.O=C(NCCCC(c1cc(F)ccc1F)S(=O)(=O)c1ccc(Cl)cc1)c1cccnc1` (centres unmarked), the figure is 154 to 157 °C; as for `O=S(=O)(c1ccc(Cl)cc1)C1(c2cc(F)ccc2F)CCCCCC1` [Example 275], 101 to 103 °C; as for `CS(=O)(=O)CCCCC(c1ccc(F)cc1Cl)S(=O)(=O)c1ccc(Cl)cc1` (centres unmarked) [Example 68, 2-Chloro-1-[1-[(4-chlorophenyl)sulfonyl]-5-(methylsulfonyl)pentyl]-4-fluorobenzene], 124 to 125 °C.
As for `CN(C)CCCC(c1ccncc1)S(=O)(=O)c1ccc(Cl)cc1` (centres unmarked) [Example 125, 4-(4-Chlorophenylsulfonyl)-N,N-dimethyl-4-(pyridin-4-yl)butylamine], the melting point lay within 78 to 80 °C.
Molecule `O=S(=O)(CCO)CCC(c1cc(F)ccc1F)S(=O)(=O)c1ccc(Cl)cc1` (centres unmarked) [Example 255, 2-[3-[(4-Chlorophenyl)sulfonyl]-3-(2,5-difluorophenyl)propylsulfonyl]ethanol] displayed a melting point of 111 to 113 °C.
As for `CC(C)(C)OC(=O)N1CCC(C(c2cc(F)ccc2F)S(=O)(=O)c2ccc(Cl)cc2)CC1` (centres unmarked) [Example 290, t-Butyl 4-[[(4-chlorophenyl)sulfonyl](2,5-difluorophenyl)methyl]-1-piperidinecarboxylate], the figure is 193 to 196 °C.
The value for `CC(C)(C)OC(=O)CC(c1cc(F)ccc1F)S(=O)(=O)c1ccc(Cl)cc1` (centres unmarked) [Example 61, t-Butyl 3-[(4-chlorophenyl)sulfonyl]-3-(2,5-difluorophenyl)propionate] was 140.5 to 142 °C; that for `CSC(c1cc(F)ccc1F)S(=O)(=O)c1ccc(Cl)cc1` (centres unmarked) [Example 56, 2-[1-[(4-Chlorophenyl)sulfonyl]-1-methylthio]methyl-1,4-difluorobenzene] was 128 to 129 °C.
`COc1cccc(C(CCCCS(C)(=O)=O)S(=O)(=O)c2ccc(Cl)cc2)c1` (centres unmarked) [Example 83, 1-[1-(4-Chlorophenylsulfonyl)-5-(methylsulfonyl)pentyl]-3-methoxybenzene] yielded a melting point of 91 to 93 °C.
Molecule `CS(=O)(=O)CCCCC(c1ccc(Cl)c(Cl)c1)S(=O)(=O)c1ccc(Cl)cc1` (centres unmarked) [Example 69, 1,2-Dichloro-4-[1-[(4-chlorophenyl)sulfonyl]-5-(methylsulfonyl)pentyl]benzene] came in with a melting point of 143 to 144 °C.
For the molecule `O=S(=O)(c1ccc(Cl)cc1)C(c1nccs1)c1cc(F)ccc1F` (centres unmarked) [Example 152, 2-[[(4-Chlorophenyl)sulfonyl]-(2,5-difluorophenyl)methyl]thiazole], the melting point lay within 163 to 164 °C.
As for `CS(=O)(=O)CCCCC(c1cc(Cl)ccc1F)S(=O)(=O)c1ccc(Cl)cc1` (centres unmarked) [Example 79, 4-Chloro-2-[1-(4-chlorophenylsulfonyl)-5-(methylsulfonyl)pentyl]-1-fluorobenzene], the figure is 116 to 117 °C; as for `O=S(=O)(c1ccc(Cl)cc1)C1(c2ccccc2CO)CCCCC1` [Example 286, [2-[1-[(4-Chlorophenyl)sulfonyl]cyclohexyl]phenyl]methanol], 148 to 150 °C (dec.); as for `O=C(O)CCC(c1cc(F)ccc1F)S(=O)(=O)c1ccc(Cl)cc1` (centres unmarked) [Example 200, 4-[(4-Chlorophenyl)sulfonyl]-4-(2,5-difluorophenyl)butyric Acid], 157 to 158 °C.
`O=S(=O)(c1ccc(Cl)cc1)C(CCC1CCCC1)c1cc(F)ccc1F` (centres unmarked) [Example 315, 2-[1-(4-Chlorophenylsulfonyl)-3-cyclopentylpropyl]-1,4-difluorobenzene] showed a melting point of 93 to 94 °C.
In turn, `O=S(=O)(c1ccc(Cl)cc1)C(CCc1ccc(F)cc1)c1cc(F)ccc1F` (centres unmarked) [Example 309, 2-[1-(4-Chlorophenylsulfonyl)-3-(4-fluorophenyl)propyl]-1,4-difluorobenzene] came in with a melting point of 131 to 132 °C.
